Counter-ions that a name gives are not always drawn.
Key:
human COX-1 = target: T1, human COX-1 (Homo sapiens, UniProt P23219); test: Inhibition of COX-1 activity (PGE2 production after arachidonic acid) in U-937 cells; type: cell-based; settings: 0.1 μM test compound, PGE2 production after 10 μM arachidonic acid
T1 construct: cell lines expressing human COX-1 (U-937 from human histiocitic lymphoma); endogenous in cells; host or cells: U-937 (human histiocytic lymphoma)
Procedure: (§1) Inhibition of cyclooxygenase-1 (COX-1) and cyclooxygenase-2 (COX-2) Activity in Human Cell Lines
(§2) The inhibition of COX-1 and COX-2 is determined by assessing the PGE2 production after stimulation with arachidonic acid in cell lines expressing human COX-1 (U-937 from human histiocitic lymphoma) and human COX-2 (143.98.2 from human osteosarcoma), respectively.
(§3) The osteosarcoma-derived cells were cultured in 1 mL of DMEM culture medium supplemented with 10% fetal calf serum, in 24-well multidishes until confluence. U-937 cells were cultured in RPMI medium supplemented with 10% fetal calf serum in flasks.
(§4) To evaluate COX-2 activity, the medium was removed and replaced with Hepes-buffered saline solution (HBSS) without Ca^2+/Mg^2+ (2×10^5 cells/well). To evaluate COX-1 activity, the medium was removed and U-937 cells were resuspended to a final density of 3×10^6 cells/mL in HBSS without Ca^2+/Mg^2+ (1 mL/well, in 24-well multidishes). 1 μL of a solution of the test compound dissolved in DMSO or vehicle was added, and the samples were incubated for 15 min at 37° C. (5% CO2 and 95% humidity). Arachidonic acid was added (final concentration: 10 μM) and the samples were incubated for 10 min more. Next the reactions were quenched by adding indomethacin (8 mM, 30 μL). The amount of PGE2 in the supernatant was determined by specific enzymatic immunoassay (Kit Prostaglandin E2, Biotrak EIA system RPN222, Amersham Pharmacia Biotech). All the assays were performed in triplicate.
(§5) The results obtained with representative compounds of the present invention are shown in the following table, where the % of inhibition of COX-1 and COX-2 activity at a concentration of 0.1 μM of test compound are reported.

human COX-2 = target: T2, human COX-2 (Homo sapiens, UniProt P35354); test: Inhibition of COX-2 activity (PGE2 production after arachidonic acid) in 143.98.2 osteosarcoma cells; type: cell-based; settings: 0.1 μM test compound, PGE2 production after 10 μM arachidonic acid
T2 construct: human COX-2 (143.98.2 from human osteosarcoma), respectively; endogenous in cells; host or cells: 143.98.2 (human osteosarcoma)
T2 sequence (P35354 18-604): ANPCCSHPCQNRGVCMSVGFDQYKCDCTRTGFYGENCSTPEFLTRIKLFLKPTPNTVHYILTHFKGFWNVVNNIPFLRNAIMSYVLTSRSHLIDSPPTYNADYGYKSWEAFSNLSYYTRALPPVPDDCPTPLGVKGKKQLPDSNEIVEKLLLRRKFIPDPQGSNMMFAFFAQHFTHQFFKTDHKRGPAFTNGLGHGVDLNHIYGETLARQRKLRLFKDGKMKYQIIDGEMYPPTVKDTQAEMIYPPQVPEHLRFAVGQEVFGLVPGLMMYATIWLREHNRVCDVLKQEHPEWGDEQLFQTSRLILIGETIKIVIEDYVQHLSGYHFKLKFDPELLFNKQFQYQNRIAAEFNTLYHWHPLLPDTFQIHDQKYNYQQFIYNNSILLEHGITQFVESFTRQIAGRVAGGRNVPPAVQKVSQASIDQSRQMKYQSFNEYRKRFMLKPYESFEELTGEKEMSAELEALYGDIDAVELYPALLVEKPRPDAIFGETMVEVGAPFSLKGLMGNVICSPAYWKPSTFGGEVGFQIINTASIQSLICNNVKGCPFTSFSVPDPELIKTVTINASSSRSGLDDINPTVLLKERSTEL
Procedure: as §1, §2, §3, §4, §5

T1 sequence (P23219 24-599): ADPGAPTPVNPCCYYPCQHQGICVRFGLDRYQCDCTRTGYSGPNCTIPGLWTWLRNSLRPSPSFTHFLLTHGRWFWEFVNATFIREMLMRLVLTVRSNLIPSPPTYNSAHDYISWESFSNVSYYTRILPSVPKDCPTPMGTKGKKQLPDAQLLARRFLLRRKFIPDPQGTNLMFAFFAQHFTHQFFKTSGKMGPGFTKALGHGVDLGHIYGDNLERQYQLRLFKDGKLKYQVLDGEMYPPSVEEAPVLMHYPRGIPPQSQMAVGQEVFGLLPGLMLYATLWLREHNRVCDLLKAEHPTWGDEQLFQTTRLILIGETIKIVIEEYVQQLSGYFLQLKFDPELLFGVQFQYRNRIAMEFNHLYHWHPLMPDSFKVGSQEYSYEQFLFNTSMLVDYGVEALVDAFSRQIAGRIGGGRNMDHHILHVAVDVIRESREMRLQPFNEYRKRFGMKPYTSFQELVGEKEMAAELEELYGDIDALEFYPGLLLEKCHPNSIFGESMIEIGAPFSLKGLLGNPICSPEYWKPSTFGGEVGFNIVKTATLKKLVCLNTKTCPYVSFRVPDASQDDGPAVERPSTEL

Compound | inhibition at 0.1 µM (human COX-1) [%] | inhibition at 0.1 µM (human COX-2) [%]
CS(=O)(=O)c1ccc(C2=C(c3ccc(N4CC=CC4=O)cc3)C(=O)OC2)cc1 [Example 14, 4-(4-Methylsulfonylphenyl)-3-[4-(2-oxo-3-pyrrolin-1-yl)phenyl]-5H-furan-2-one] | 0 | 49
CS(=O)(=O)c1ccc(C2=C(c3ccc(N4CCCC4)nc3)C(=O)OC2)cc1 [Example 17, 4-(4-Methylsulfonylphenyl)-3-[6-(1-pyrrolidinyl)-3-pyridyl]-5H-furan-2-one] | 0 | 81
CS(=O)(=O)c1ccc(C2=C(c3ccc(N4CCCC4)cc3)C(=O)OC2)cc1 [Example 15, 4-(4-Methylsulfonylphenyl)-3-[4-(1-pyrrolidinyl)phenyl]-5H-furan-2-one] | 17 | 81
CS(=O)(=O)c1ccc(-n2cnc(Cl)c2-c2ccc(N3CCCC3)nc2)cc1 [Example 12, 4-Chloro-1-(4-methylsulfonylphenyl)-5-[6-(1-pyrrolidinyl)-3-pyridyl]imidazole] | 0 | 79
CS(=O)(=O)c1ccc(-n2cnc(Cl)c2-c2ccc(N3CC=CC3=O)cc2)cc1 [Example 8, 4-Chloro-1-(4-methylsulfonylphenyl)-5-[4-(2-oxo-3-pyrrolin-1-yl)phenyl]imidazole] | 0 | 76
CS(=O)(=O)c1ccc(-n2cnc(Cl)c2-c2ccc(N3CCCC3)c(Cl)c2)cc1 [Example 6, 4-Chloro-5-[3-chloro-4-(1-pyrrolidinyl)phenyl]-1-(4-methylsulfonylphenyl)imidazole] | 0 | 89
NS(=O)(=O)c1ccc(-n2cnc(Cl)c2-c2ccc(N3CCCC3)cc2)cc1 [Example 5, 4-[4-Chloro-5-[4-(1-pyrrolidinyl)phenyl]imidazol-1-yl]benzenesulfonamide, hydrochloride] | 0 | 70
CS(=O)(=O)c1ccc(C2=C(c3ccc(N4CCCC4)c(Cl)c3)C(=O)OC2)cc1 [Example 16, 3-[3-Chloro-4-(1-pyrrolidinyl)phenyl]-4-(4-methylsulfonylphenyl)-5H-furan-2-one] | 0 | 93

Further lines, results first:

inhibition at 0.1 µM (human COX-1) [%] | inhibition at 0.1 µM (human COX-2) [%] | Compound
0 | 61 | CS(=O)(=O)c1ccc(-n2cnc(Cl)c2-c2ccc(N3CCCC3=O)cc2)cc1 [Example 10, 4-Chloro-1-(4-methylsulfonylphenyl)-5-[4-(2-oxopyrrolidin-1-yl)phenyl]imidazole]
0 | 72 | CS(=O)(=O)c1ccc(-n2cnc(Cl)c2-c2ccc(N3CCOC3=O)cc2)cc1 [Example 9, 4-Chloro-1-(4-methylsulfonylphenyl)-5-[4-(2-oxooxazolidin-3-yl)phenyl]imidazole]
0 | 72 | CS(=O)(=O)c1ccc(-n2cnc(Cl)c2-c2ccc(N3C(=O)CCC3=O)cc2)cc1 [Example 7, 4-Chloro-1-(4-methylsulfonylphenyl)-5-[4-(2,5-dioxopyrrolidin-1-yl)phenyl]imidazole]
11 | 75 | CS(=O)(=O)c1ccc(-n2cnc(Cl)c2-c2ccc(N3CCC(O)C3)cc2)cc1 (stereo not shown) [Example 3, 4-Chloro-5-[4-(3-hydroxypyrrolidin-1-yl)phenyl]-1-(4-methylsulfonylphenyl)imidazole]
0 | 61 | CS(=O)(=O)c1ccc(-n2cnc(Cl)c2-c2ccc(N3CCCC3)cc2)cc1 [Example 1, 4-Chloro-1-(4-methylsulfonylphenyl)-5-[4-(1-pyrrolidinyl)phenyl]imidazole]
0 | 72 | CC1CCCN1c1ccc(-c2c(Cl)ncn2-c2ccc(S(C)(=O)=O)cc2)cc1 (stereo not shown) [Example 4, 4-Chloro-5-[4-(2-methylpyrrolidin-1-yl)phenyl]-1-(4-methylsulfonylphenyl)imidazole]

Reference: patent US20030114456A1, “Novel heterocylic compounds with anti-inflamatory activity” (priority 2000, published 2003)
